Assay results taken from patent US20050026223A1, “Method and compositions for increasing bone mass” (The Board of Trustees of the University of Arkansas, priority 1999, published 2005).

Tests used:
[1] = human iliac trabecular bone, after one year of treatment; cited from earlier work
[2] = rats, intravenously; cited from earlier work
[3] = tested on: osteoblastic cells derived from murine calvaria; experiment: Etoposide-induced apoptosis of osteoblastic cells derived from murine calvaria (trypan blue uptake); assay type: cell-based; conditions: for Lowest Effective Concentration: inhibition of etoposide-induced osteoblast apoptosis, 1 hour pretreatment, trypan blue after 6 hours; for Suppression by 10^−8 M Flutamide: suppression of the anti-apoptotic effect by the androgen receptor antagonist flutamide; for Anti-apoptotic effect on osteoblastic cells after ICI182,780: compound 10^−8 M, 1 h pretreatment with ICI182,780 10^−7 M
Experimental: Osteoblastic cells derived from murine calvaria were pretreated with the sterols for 1 hour before the addition of the pro-apoptotic agent, etoposide. Apoptosis was determined after 6 hours by trypan blue uptake (Jilka et al, J. Bone and Min. Res. 13:793:802, 1998). * indicates p<0.05 versus etoposide alone, by analysis of variance (ANOVA) (Student-Newman-Keuls method).
Osteoblastic cells derived from murine calvaria were pretreated for 1 hour with the pure receptor antagonist ICI182,780 (10^−7 M) before the addition of the test agents (10^−8 M). Apoptosis was induced and quantified as described in FIG. 3. * indicates p<0.05 versus etoposide alone, by ANOVA (Student-Newman-Keuls method).
In this experiment, osteoblastic cells were derived from murine calvaria and were pretreated with the sterols for 1 hour before the addition of the pro-apoptotic agent, etoposide.
In these experiments, cells were pretreated with the indicated concentrations of the various compounds for 1 hour, in the absence or presence of the androgen receptor antagonist flutamide, before the addition of the proapoptotic agent etoposide. Apoptosis was determined after 6 hours by trypan blue uptake as described in FIG. 3.

[4] = for at least four years; cited from earlier work
[5] = tested on: extracellular signal regulated kinases (ERKs) 1 and 2; experiment: Western blot of phosphorylated ERK1/2 in MLO-Y4 osteocytic cells; assay type: cell-based, murine; conditions: for Activation of ERKs (phosphorylated fraction of ERK1/2): 10^−8 M, 5, 15 or 30 minutes; for Ability to activate ERKs in the presence of PD98059: compound 10^−8 M, 5 minutes, 50 μM PD98059
Experimental: (§1) MLO-Y4 osteocytic cells were incubated for 25 minutes in serum-free medium. […] Cell lysates were prepared and proteins were separated by electrophoresis in polyacrylamide gels and transferred to PVDF membranes. Western blotting was performed using a specific antibody recognizing phosphorylated ERKs 1 and 2, followed by reblotting with an antibody recognizing total ERKs. Blots were developed by enhanced chemiluminescence.
as §1, with “MLO-Y4” for “MLO-Y4 osteocytic”, “medium in the presence or absence of 50 μM PD98059.” for “medium.”
as §1, with “In this experiment, MLO-Y4” for “MLO-Y4”, “extracellular signal regulated kinases” for “ERKs”, “extracellular signal regulated kinases.” for “ERKs.”, “chemiluminescence. […] This effect is too rapid to be accounted for by the classical mechanism of estrogen action.” for “chemiluminescence.”
as §1, with “In this experiment, MLO-Y4” for “MLO-Y4”, “medium in the presence or absence of 50 μM PD98059.” for “medium.”, “extracellular signal regulated kinases” for “ERKs”, “extracellular signal regulated kinases.” for “ERKs.”

MLO-Y4 osteocytic cells [6] = experiment: Etoposide-induced apoptosis of MLO-Y4 osteocytic cells (trypan blue uptake); assay type: cell-based, murine; conditions: for Inhibition of etoposide-induced apoptosis of osteocytic cell line: 1 h pretreatment before etoposide, trypan blue after 6 h; for Antiapoptotic effect on osteocytes after ICI182,780: 1 h pretreatment with ICI182,780 10^−7 M
Experimental: Cells were pretreated with the indicated concentrations of the compounds for 1 hour before the addition of the pro-apoptotic agent etoposide. Apoptosis was determined after 6 hour by trypan blue uptake as described in FIG. 3. * indicates p<0.05 versus etoposide alone, by ANOVA (Student-Newman-Keuls method).
MLO-Y4 cells were pretreated for 1 hour with the pure receptor antagonist ICI182,780 (10^−7 M) before the addition of the test agents (10^−8 M). Apoptosis was induced and quantified as described in FIG. 3. * indicates p<0.05 versus etoposide alone, by ANOVA (Student-Newman-Keuls method).
In this experiment, MLO-Y4 cells were pretreated with the indicated concentrations of the various compounds for 1 h before the addition of the pro-apoptotic agent, etoposide. Apoptosis was determined after 6 h by trypan blue uptake as described in FIG. 3.

osteoclasts = conditions: increased from approximately 0.5%; cited from earlier work
wild type HeLa cells = experiment: Etoposide-induced apoptosis of wild type HeLa cells; assay type: cell-based, human; conditions: compound 10^−8 M 1 h, etoposide 5×10^−5 M 6 hour
From the text: CMV promoter alone and CMV promoter-driven cDNA for mERα or mErβ were stably transfected into HeLa cells. […] Cells were trypsinized, pelleted and trypan blue positive cells enumerated. Each bar represents mean of duplicate experiments ±SEM. *P<0.02 versus etoposide alone.
(§2) In this experiment, instead of calvaria cells, human HeLa cells which contain undetectable, if any, estrogen receptor were used. HeLa cells were stably transfected with either a CMV promoter-driven cDNA for the murine estrogen receptor-alpha (mERα) or a CMV promoter-driven cDNA for the murine estrogen receptor-beta (mERβ). […] Cells were trypsinized, pelleted and trypan blue positive cells were enumerated.

[7] = tested on: HeLa cells transfected with the estrogen receptor α (mERα); experiment: Etoposide-induced apoptosis of HeLa cells stably transfected with mERα; assay type: cell-based, human; conditions: compound 10^−8 M 1 h, etoposide 5×10^−5 M 6 hour
From the text: (§3) CMV promoter alone and CMV promoter-driven cDNA for mERα or mErβ were stably transfected into HeLa cells. […] Cells were trypsinized, pelleted and trypan blue positive cells enumerated.
as §2

[8] = tested on: HeLa cells transfected with estrogen receptor β (mERβ); experiment: Etoposide-induced apoptosis of HeLa cells stably transfected with mERβ; assay type: cell-based, human; conditions: compound 10^−8 M 1 h, etoposide 5×10^−5 M 6 hour
From the text: as §3, §2

MLO-Y4 osteocytic cells [9] = experiment: Dexamethasone-induced apoptosis of MLO-Y4 osteocytic cells with PD98059; assay type: cell-based, murine; conditions: compound 10^−8 M; PD98059 1 hour; dexamethasone 6 hours
Experimental: Apoptosis was induced by incubation with the pro-apoptotic agent dexamethasone for 6 hour and quantified as described in FIG. 3. * indicates p<0.05 versus the corresponding control group without dexamethasone, by ANOVA (Student-Newman-Keuls method).
That indeed the anti-apoptotic effect of all the compounds tested herein was mediated via activation of ERKs was established by the results of the experiments shown in FIG. 10. […] Apoptosis was induced by incubation with the pro-apoptotic agent dexamethasone for 6 hours and quantified as described in FIG. 3.

osteoblasts = conditions: intermittent administration in mice; decreased from 1.7-2.2%; cited from earlier work

For `CC(O)(P(=O)(O)O)P(=O)(O)O` [etidronate], the “Reduction of resorption depth” value [1] is listed as roughly 30%.

For `CC(=O)N[C@@H](CS)C(=O)O` [N-acetylcysteine, acetamido-mercaptopropionic acid], the LD50 [2] is given as 1140 mg/kg.

For `C[C@]12CCC(=O)C[C@@H]1CC[C@@H]1[C@@H]2CC[C@]2(C)[C@@H](O)CC[C@@H]12` [5-α-dihydrotestosterone], the “Lowest Effective Concentration” value [3] was 10^−9 M and the “Suppression by 10^−8 M Flutamide” value [3] was “yes”.

For `C[C@]12CC[C@H](OS(=O)(=O)O)CC1=CC[C@@H]1[C@@H]2CC[C@]2(C)C(=O)CC[C@@H]12` [Dehydroisoandrosterone-3-sulfate (DHES), Dehydroisoandrosterone-3-sulfate], the “Lowest Effective Concentration” value [3] was 10^−8 M and the “Suppression by 10^−8 M Flutamide” value [3] was “no*”.

For `C[C@]1(O)CC[C@H]2[C@@H]3CCC4=CC(=O)CCC4=C3C=C[C@@]21C` [RU1881], the “Lowest Effective Concentration” value [3] was 10^−8 M and the “Suppression by 10^−8 M Flutamide” value [3] was “yes”.

In the case of `C[C@]12CC[C@H]3[C@@H](CC=C4C[C@@H](O)CC[C@@]43C)[C@@H]1CC[C@@H]2O` [5-androstene-3β-17_-diol], the “Lowest Effective Concentration” value [3] is reported as 10^−8 M and the “Suppression by 10^−8 M Flutamide” value [3] is reported as “yes”.

For `[F-].[Na+]` [sodium fluoride], the “Increase of vertebral bone mass” value [4] is listed as 10 % a year.

For `C[C@]12CC[C@@H]3c4ccc(O)cc4CC[C@H]3[C@@H]1CC[C@@H]2O` [17β-estradiol, reference compound], the “Activation of ERKs (phosphorylated fraction of ERK1/2)” value [5] was “activated”, the “Ability to activate ERKs in the presence of PD98059” value [5] was “abrogated” and the “Inhibition of etoposide-induced apoptosis of osteocytic cell line” value (MLO-Y4 osteocytic cells [6]) was “dose-dependently inhibited”. For the same molecule, the “Antiapoptotic effect on osteocytes after ICI182,780” value (MLO-Y4 osteocytic cells [6]) was “abrogated”, the Apoptosis of osteoclasts (osteoclasts) was no more than 2.7% and the “Effect on etoposide-induced apoptosis” value (wild type HeLa cells) was “none of the three compounds had any effect”. The “Inhibition of etoposide-induced osteoblast apoptosis” value ([3]; 1 hour pretreatment before etoposide) was “prevented apoptosis of osteoblastic cells isolated from murine calvaria, in a dose dependent manner”, the “Anti-apoptotic effect on osteoblastic cells after ICI182,780” value [3] was “abrogated” and the “Effect on etoposide-induced apoptosis” value [7] was “potently inhibited”. The “Effect on etoposide-induced apoptosis” value [8] was “potently inhibited” and the “Anti-apoptotic effect after PD98059 pretreatment” value (MLO-Y4 osteocytic cells [9]) was “prevented the anti-apoptotic effect”.

With `C[C@]12CCC(=O)C[C@@H]1CC[C@@H]1[C@@H]2CC[C@]2(C)[C@@H](O)CC[C@@H]12` [5-β-dihydrotestosterone] the “Lowest Effective Concentration” value [3] was 10^−10 M and the “Suppression by 10^−8 M Flutamide” value [3] was “yes”.

With `C[C@]12CCC(=O)C=C1CC[C@@H]1[C@@H]2CC[C@]2(C)C(=O)CC[C@@H]12` [4-androstene-3,17-dione] the “Lowest Effective Concentration” value [3] was 10^−8 M and the “Suppression by 10^−8 M Flutamide” value [3] was “yes”.

In the case of `C[C@]12CC[C@H]3[C@@H](CCC4=CC(=O)CC[C@@]43C)[C@@H]1CC[C@@H]2O` [Testosterone], the “Lowest Effective Concentration” value [3] is reported as 10^−9 M and the “Suppression by 10^−8 M Flutamide” value [3] is reported as “yes”.

For `C[C@]12CC[C@@H]3c4ccc(O)cc4CC[C@H]3[C@@H]1CC[C@H]2O` [17α-estradiol], the “Activation of ERKs (phosphorylated fraction of ERK1/2)” value [5] was “activated”, the “Ability to activate ERKs in the presence of PD98059” value [5] was “abrogated” and the “Inhibition of etoposide-induced apoptosis of osteocytic cell line” value (MLO-Y4 osteocytic cells [6]) was “dose-dependently inhibited”. The “Antiapoptotic effect on osteocytes after ICI182,780” value (MLO-Y4 osteocytic cells [6]) was “abrogated”, the “Effect on etoposide-induced apoptosis” value (wild type HeLa cells) was “none of the three compounds had any effect” and the “Anti-apoptotic effect on osteoblastic cells after ICI182,780” value [3] was “abrogated”. For the same molecule, the “Effect on etoposide-induced apoptosis” value [7] was “potently inhibited”, the “Effect on etoposide-induced apoptosis” value [8] was “potently inhibited” and the “Anti-apoptotic effect after PD98059 pretreatment” value (MLO-Y4 osteocytic cells [9]) was “prevented the anti-apoptotic effect”.

B1: PTH: parathyroid hormone, an agent known for its role in calcium homeostasis (protein, UniProt P01270 32-115, looked up)
Parathyroid hormone: SVSEIQLMHNLGKHLNSMERVEWLRKKLQDVHNFVALGAPLAPRDAGSQRPRKKEDNVLVESHEKSLGEADKADVNVLTKAKSQ
modifications: Parathyroid hormone
notes: parathyroid hormone, an agent known for its role in calcium homeostasis
For B1, the “Prevalence of osteoblast apoptosis” value (osteoblasts) is given as 0.1-0.4%.
